The structures appear in SMILES notation.

The source of these data is patent publication US6555576B1, “Method for treating exercise induced asthma” (SmithKline Beecham Corporation, priority 1999, dated 2003).

For data set [1], the system named is low affinity form of PDE 4 (LPDE 4). Kind of data set: PDE 4 catalytic activity assay (low affinity form). It counts as biochemical, human. To be noted: HPDE 4 IC50 divided by LPDE 4 IC50.
Method: Consequently, inhibition of recombinant PDE 4 catalytic activity primarily reflects the actions of compounds at LPDE 4. Inhibition of PDE 4 catalytic activity can thus be used as an index of the potency of compounds at LPDE 4.
Isolated human monocyte PDE 4 and hrPDE 4 was determined to exist primarily in the low affinity form.
Data set [2] concerns acid secretion. To be noted: rats, particularly in combination with an activator of adenylate cyclase such as histamine; cited from earlier work.
The target of data set [3] is T1, high affinity rolipram binding site of PDE 4 (HPDE 4).
T1 construct: Rat brain high speed supernatants were used as a source of protein
Briefly: [3H]-rolipram binding assay (high affinity site). To be noted: competition with 1 nM [3H]-rolipram, rat brain high speed supernatants, 1 hour at 30° C. As for the experimental part: Rat brain high speed supernatants were used as a source of protein. […] The assay was run for 1hour at 30° C. The reaction was terminated and bound ligand was separated from free ligand using a Brandel cell harvester. Competition for the high affinity binding site was assessed under conditions that were identical to those used for measuring low affinity PDE activity, expect that [^3H]-cAMP was not present.

Data set [4] relates to patients with EIA. Kind of data set: Exercise challenge study in patients with EIA. It is filed as in vivo, human. The protocol:
A randomized, double-blind, placebo-controlled, two-period cross-over study was conducted to assess the efficacy, safety and tolerability of cis-[4-cyano-4-(3-cyclopentyloxy-4-methoxyphenyl)cyclohexan-1-carboxylate] in patients with EIA. 27 patients with EIA were randomized to receive the compound, 10 mg BID immediate release tablet or placebo, for 7 days followed by a 7 day washout and the alternate treatment for 7 days. Exercise challenge tests were performed after a single dose on day 1, and again on day 7 (pre-dose and three hours post-dose).
The patient population consisted of non-smoking men or women, ages 18 to 60 years with EIA such that:
a) their forced expiratory volume in one second (FEV1) was greater than or equal to 70% of predicted normal,
b) the documented fall in FEV1 was greater than or equal to 15% in response to exercise testing at a screening visit, and
c) they were not taking inhaled corticosteroids or other controller medications for asthma.
The Exercise Challenge Protocol was as follows. Patients were exercised on a motorized treadmill for six minutes at target heart rate. Speed and inclination were adjusted to achieve a target heart rate for each patient of 85% of age-adjusted maximum predicted. Patients breathed compressed air (0% humidity at room temperature) during the test through a face mask. Pulmonary function tests (KoKo pneumotach) were performed 1, 5, 10, 15, 20, 30 and 45 minutes after completion of the test and continued thereafter if FEV1 had not returned to within 10% of the baseline.
The primary efficacy variable was the maximum percentage decrease (MPD) in the FEV1 in response to exercise. The results indicated significant improvement in MPD FEV1 after one dose of the compound, from a mean MPD of 32.88% to 23.57%. There was an incremental effect of the compound after 7 days of dosing with further improvement in mean MPD FEV1 to 21.8%. […] See also, Am. J. Resp. Crit. Care Med. 1998:157; A413, incorporated herein in its entirety by reference.

For data set [5] the following is noted: human, in vivo; cited from earlier work.

`COc1ccc(CCNC(=O)C(N)=O)cc1OC1CCCC1` [N-[2-(3-cyclopentyloxy-4-methoxyphenyl)ethyl]oxamide]: the “High/Low Ratio (IC50 high affinity / IC50 low affinity)” value in data set [1] worked out at 0.013.

A word on the IC50: it is the concentration needed to halve the response being measured. A higher IC50 goes with weaker potency in that assay. `CCCCOc1cc(CC2CNC(=O)N2)ccc1OC` (stereo not drawn) [Ro 20-1724, reference compound]: the “effect on acid secretion” value in data set [2] was “enhance acid secretion”. The compound further returned an IC50 in data set [3] of 190 nM.

As for `COc1ccc(C2CCN(Cc3ccc(NC(=NC#N)SC)cc3)C2=O)cc1OC1CCCC1` (stereo not drawn) [3-(cyclopentyl-oxy-4-methoxyphenyl)-1-(4-N′-[N2-cyano-S-methyl-isothioureido]benzyl)-2-pyrrolidone], in data set [1], the “High/Low Ratio (IC50 high affinity / IC50 low affinity)” value was determined as 0.30.

For the compound `COc1ccc(C2(C#N)CCC(C(=O)O)CC2)cc1OC1CCCC1` (stereo not drawn) [cis-[4-cyano-4-(3-cyclopentyloxy-4-methoxyphenyl)cyclohexan-1-carboxylate]], in data set [4] (10 mg BID for 7 days, patients with EIA), the safety and tolerability entry is “safe and well tolerated, with no treatment-related serious adverse experiences or withdrawals”. The “effects in humans suffering from EIA” value in data set [4] (administered to humans suffering from EIA) was “reduced inflammation, bronchodilation and pulmonary neuromodulation”. In addition, the “mean maximum percentage decrease (MPD) in FEV1 in response to exercise” value stood at 21.8% in data set [4] (after 7 days of dosing, 10 mg BID) and 23.57% in data set [4] (after one dose, 10 mg immediate release tablet, improved from mean MPD of 32.88%). The “patients with a fall in FEV1 of less than or equal to 15% after exercise” value in data set [4] (after one week of treatment, 10 mg BID) is 40%.

In turn, `COc1ccc(C2CN(Cc3ccc(N)cc3)C(=O)N2)cc1OC1CCCC1` (stereo not drawn) [1-(4-aminobenzyl)-4-(3-cyclopentyloxy-4-methoxyphenyl)-2-imidazolidinone] returned an IC50 in data set [3] of 100 nM. The “High/Low Ratio (IC50 high affinity / IC50 low affinity)” value in data set [1] is recorded as 0.07.

In the case of `NC(=O)C(=O)NCCc1ccc(OC(F)F)c(OC(F)F)c1` [N-[2-(3,4-bisdifluoromethoxy-phenyl)ethyl]oxamide], the IC50 in data set [3] turned out to be 400 nM. The “High/Low Ratio (IC50 high affinity / IC50 low affinity)” value in data set [1] worked out at 0.25.

On to `CC(C)Cn1c(=O)n(C)c(=O)c2[nH]cnc21` [IBMX, reference compound], for which, in data set [1], the “High/Low Ratio (IC50 high affinity / IC50 low affinity)” value turned out to be 0.698.

Regarding `CCOC(=O)C=C1C[C@H](c2ccc(OC)c(OC3CCCC3)c2)CN1` [(R)-(+)-ethyl [4-(3-cyclopentyloxy-4-methoxyphenyl)pyrrolidine-2-ylidene]acetate], the “High/Low Ratio (IC50 high affinity / IC50 low affinity)” value in data set [1] is 2.143.

Turning to `CCOC(=O)C=C1C[C@@H](c2ccc(OC)c(OC3CCCC3)c2)CN1` [(S)-(−)-ethyl [4-(3-cyclopentyloxy-4-methoxyphenyl)pyrrolidine-2-ylidene]acetate], in data set [1], the “High/Low Ratio (IC50 high affinity / IC50 low affinity)” value is given as “.98”.

Take `COc1ccc(C2CNC(=O)C2)cc1OC1CCCC1` (stereo not drawn) [rolipram]: the “effect on acid secretion” value in data set [2] is listed as “enhance acid secretion”. In addition, the “side effects in clinical studies” value in data set [5] was “has psychotropic activity and produces gastrointestinal effects, e.g., pyrosis, nausea and emesis”.

As to `OCCN(CCO)c1nc(N2CCCCC2)c2nc(N(CCO)CCO)nc(N3CCCCC3)c2n1` [dipyridamole, 2,2′,2″,2′-[(4,8-dipiperldinopyrimido[5,4-d]pyrmidine-2-6-diyl)dinitrilo]tetraethanol, reference compound], the “High/Low Ratio (IC50 high affinity / IC50 low affinity)” value in data set [1] was 6.25.

In the case of `COc1ccc(C2CCC(c3nnn[nH]3)C2)cc1OC1CCCC1` (stereo not drawn) [1-(5-tetrazole)-3-(3-cyclopentyloxy-4-methoxyphenyl)cyclopentane], the “High/Low Ratio (IC50 high affinity / IC50 low affinity)” value in data set [1] was determined as 0.0018.

Consider `CCCCn1c(=O)c2c(ncn2CC(C)=O)n(CCCC)c1=O` [denbufylline, 7-acetonyl, 1,3-dibutyixanthine], for which, in data set [5], the “side effects in clinical studies” value was “may include pyrosis, nausea and emesis”.
